Patent US10765648B2, “iNKT cell modulators and methods of using the same” (LUDWIG INSTITUTE FOR CANCER RESEARCH, priority 2011, dated 2020)

What was measured:
human dendritic cells = assay: Lysis of monocyte-derived dendritic cells cultured with human iNKT cells and lipid, PI staining; format: cell-based; conditions: 40 hours; for dendritic cell killing: various concentrations
Experimental: Monocyte-derived dendritic cells and human iNKT cells were cultured with various concentrations of each lipid for 40 hours and then PI stained to determine percent dendritic cell lysis (and percent survival).

[1] = system: EG7 cells (EL4 cells transfected with full length ovalbumin); assay: EG7 tumor regression in mice immunized with OVA plus lipid; format: in vivo; conditions: 800 μg OVA plus lipid four days after 1×10^6 EG7 cells
Experimental: Mice were injected with 1×10^6 EG7 cells (EL4 cells transfected with full length ovalbumin).

iNKT cells = assay: In vivo anergy of iNKT cells after lipid preconditioning; design: species or system mice; conditions: for iNKT cell anergy (IFNγ 18 h after OVA and alphaGalCer at day zero): preconditioned with 100 ng lipid at day −28
Experimental: The following experiment was designed to assess the in vivo anergy of iNKT cells as defined by their ability to enhance antigen-specific T- and B-cell responses. Mice were pre-conditioned at day −28 with individual lipids shown in FIG. 12 (100 ng i.v. of either alphaGalCer, IMM47, IMM60, or IMM70). Eighteen hours later, mice were bled to assess iNKT cell activation, as defined by IFN-gamma (determined by ELISA(eBioscience)), results shown in FIG. 13. At day zero (28 days after lipid preconditioning), expression of the iNKT cell activation marker PD1 was measured in splenic iNKT cells (FIG. 14).
Eighteen hours later, iNKT cell activation was analyzed by IFNγ expression by ELISA (FIG. 15). At day 7, T cell responses were analyzed (FIG. 16).

iNKT cell TCR = target: T1, iNKT cell TCR (Homo sapiens, UniProt P15813); conditions: cited from earlier work
T1 sequence (P15813 20-301 limits assumed): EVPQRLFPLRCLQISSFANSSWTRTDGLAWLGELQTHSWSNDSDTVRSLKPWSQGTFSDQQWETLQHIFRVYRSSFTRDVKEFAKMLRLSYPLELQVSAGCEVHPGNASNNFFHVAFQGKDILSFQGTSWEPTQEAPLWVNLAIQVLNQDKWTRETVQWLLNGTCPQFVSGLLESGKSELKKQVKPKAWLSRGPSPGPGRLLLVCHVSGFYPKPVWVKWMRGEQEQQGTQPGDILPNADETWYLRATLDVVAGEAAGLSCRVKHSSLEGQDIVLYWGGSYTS

[2] = target: T2, human iNKT cell TCRs for hCD1d loaded with lipid (Homo sapiens, UniProt P15813); assay: SPR of soluble human iNKT TCR binding to hCD1d-lipid complexes
T2 construct: made in house
T2 sequence (P15813 20-301 limits assumed): T1 sequence (P15813 20-301 limits assumed)
Text: The binding kinetics of these ThrCer and α-GalCer analogue compounds were examined. To this end, bacterially-expressed hCD1d and β-2-microglobulin (β 2 M) molecules were refolded with the thioamide, and carbamate analogues of both α-GalCer and ThrCer by oxidative refolding chromatography, and then biotinylated. The urea analogues of α-GalCer and ThrCer could not be refolded, and therefore, no surface plasmon resonance (SPR) data are available for these molecules. Soluble human iNKT TCR was prepared. SPR experiments were used to measure the affinity and kinetics of human iNKT cell TCRs for hCD1d loaded with α-GalCer, ThrCer, and their thioamide and carbamate analogues (FIGS. 5A-5B). To this end, increasing concentrations of TCR were injected for 5 seconds over the indicated complex immobilized on the BIAcore chip until the specific binding reached its plateau. Kd and Bmax were calculated by fitting the data using non-linear regression binding kinetics model (FIGS. 5A-5B). Kinetic measurements for the koff were calculated using BIAevaluation software kit; kon values were calculated from the experimental koff and Kd.
Protein expression and purification: hCD1d and β2m were refolded with α-GalCer, IMM47, IMM60, IMM70 or IMM80 by oxidative chromatography. In summary, CD1d and β2m were overexpressed in E. coli BL21 using a prokaryotic expression system (Novagen, UK). […]

## CCCCCCCCCCCCCCCCCCCCCCCCCC(=O)N[C@H](CO[C@H]1CC[C@H](O)[C@H](O)[C@H]1O)[C@@H](O)[C@@H](O)CCCCCCCCCCCCCC [IMM60, N-((2R,3R,4S)-3,4-dihydroxy-1-(((1S,2R,3S,4S)-2,3,4-trihydroxycyclohexyl)oxy)octadecan-2-yl)hexacosanamide]
Human dendritic cells
  dendritic cell killing: highest dendritic cell killing
[1]
  regression of established tumour: induced regression of the established tumour
iNKT cells; 100 ng i.v. preconditioning at day −28
  iNKT cell activation (IFN-gamma at 18 h, PD1 at 28 days): stronger iNKT cell activation than IMM47, IMM70, or even alphaGalCer
iNKT cells
  iNKT cell anergy (IFNγ 18 h after OVA and alphaGalCer at day zero): highest iNKT cell anergy

## CCCCCCCCCCCCCCCCCCCCCCCCCC(=O)N[C@H](CO[C@H]1CCC[C@H](O)[C@H](O)[C@H]1O)[C@@H](O)[C@@H](O)CCCCCCCCCCCCCC [IMM70, N-((2R,3R,4S)-3,4-dihydroxy-1-(((1S,2R,3S,4S)-2,3,4-trihydroxycycloheptyl)oxy)octadecan-2-yl)hexacosanamide]
Human dendritic cells; concentrations lower than 5 ng/ml
  percentage of DC lysis: very similar to the results obtained with IMM47
iNKT cells; day 7 after immunization of preconditioned mice
  T-cell response: highest T-cell response
iNKT cells
  iNKT cell anergy (IFNγ 18 h after OVA and alphaGalCer at day zero): functional iNKT cells

## CCCCCCCCCCCCCCCCCCCCCCCC(=O)NC(COC1OC(CO)C(O)C(O)C1O)C(O)C(O)CCCCC (stereo not shown) [OCH9 12]
iNKT cell TCR; OCH9 on CD1d
  Kd: 123 ± 9.08 µM
  k0 (on rate): 23000 ± 1000 M⁻¹ s⁻¹
  koff: 2.67 ± 0.12 s⁻¹
iNKT cell TCR; recent study, versus α-GalCer
  interaction with iNKT cell TCRs: weaker interactions than α-GalCer

## CCCCCCCCCCCCCCCCCCCCCCCCCC(=O)N[C@@H](COC[C@H](O)[C@@H](O)CO)[C@H](O)[C@H](O)CCCCCCCCCCCCCC [ThrCer 2, threitolceramide]
Human dendritic cells
  dendritic cell killing: lowest dendritic cell killing
iNKT cells
  iNKT cell anergy (IFNγ 18 h after OVA and alphaGalCer at day zero): weakest iNKT cell anergy

## CCCCCCCCCCCCCCCCCCCCCCCCCC(=O)N[C@@H](CO[C@H]1O[C@H](CO)[C@H](O)[C@H](O)[C@H]1O)[C@H](O)[C@H](O)CCCCCCCCCCCCCC [α-GalCer 1, α-galactosylceramide]
[2]; calculated from experimental koff and Kd
  kon: 2580 ± 90 M⁻¹ s⁻¹
[2]; lipid on CD1d, read-out: experimental koff
  koff: 0.565 ± 0.008 s⁻¹
iNKT cells
  iNKT cell anergy (IFNγ 18 h after OVA and alphaGalCer at day zero): highest iNKT cell anergy
